This is an account of results in patent US6355799B1, “Substituted benzene compounds, process for their preparation, and herbicidal and defoliant compositions containing them” (ISK Americas Incorporated, priority 1997, dated 2002).

Structures are written as SMILES. Read-outs that look alike come from different tables or passages of the source.

Holding throughout (format): in vivo
For assay [1], the system named is common ragweed (Ambrosia artemisizfolia L., AMBEL). Put plainly: Post-emerge test, greenhouse herbicide activity screening. The settings on record: post-emerge, phytotoxicity rating 0-100 at 14 days after application. In outline: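 Compounds in acetone were track-sprayed at 187 l/ha, 15–1000 g ai/ha, onto sandy loam pots. Pre-emerge seeds were sown one day before spraying, with surface watering afterwards. Post-emerge plants were at the 2–3 leaf stage and sprayed with 0.25% v/v non-ionic surfactant. Injury was rated 0–100 at 14 days.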

Assay [2] has as its system ivyleaf morningglory (Ipomoea hederacea, IPOHE). Put plainly: Pre-emerge test, greenhouse herbicide activity screening. Conditions: for pest or weed control at 63 g/ha / pest or weed control at 250 g/ha: Ipomoea, pre-emergence, 336 h, read-out: Pre-emerge Herbicidal Activity IPOHE; for Pre-emerge herbicidal activity, phytotoxicity rating IPOHE: rating scale 0-100, 14 days after application. In outline:
(§1)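 Compounds in acetone were track-sprayed at 15-1000 g ai/ha (187 l/ha) on sandy loam pots: pre-emerge one day after seeding, post-emerge at 2-3 leaf stage with 0.25% v/v non-ionic surfactant. Phytotoxicity was rated 14 days later on a 0 (no damage) to 100 (complete death) scale.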

In assay [3] the test system is sicklepod (Cassia obtusifolia, CASOB). The description is as above. The settings on record: for pest or weed control at 63 g/ha / pest or weed control at 250 g/ha: Senna obtusifolia, pre-emergence, 336 h, read-out: Pre-emerge Herbicidal Activity CASOB; for Pre-emerge herbicidal activity, phytotoxicity rating CASOB: rating scale 0-100, 14 days after application. In outline: as §1

Assay [4] relates to green foxtail (Setaria viridis, SETVI). The description is as above. The settings on record: for pest or weed control at 63 g/ha / pest or weed control at 250 g/ha: Setaria viridis, pre-emergence, 336 h, read-out: Pre-emerge Herbicidal Activity SETVI; for Pre-emerge herbicidal activity, phytotoxicity rating SETVI: rating scale 0-100, 14 days after application. In outline:
as §1

Assay [5] concerns lambsquarters (Chenopodium album, CHEAL). The description is as above. The settings on record: for pest or weed control at 63 g/ha / pest or weed control at 250 g/ha: Chenopodium album, pre-emergence, 336 h, read-out: Pre-emerge Herbicidal Activity CHEAL; for Pre-emerge herbicidal activity, phytotoxicity rating CHEAL: rating scale 0-100, 14 days after application. An outline of the steps: as §1

Assay [6] has as its system barnyardgrass (Echinochloa crus-galli, ECHCG). The assay is described as above. Conditions: for pest or weed control at 63 g/ha / pest or weed control at 250 g/ha: Echinochloa crus-galli, pre-emergence, 336 h, read-out: Pre-emerge Herbicidal Activity ECHCG; for Pre-emerge herbicidal activity, phytotoxicity rating ECHCG: rating scale 0-100, 14 days after application. An outline of the steps:
as §1

Assay [7] relates to large crabgrass (Digitaria sanguinalis, DIGSA). The assay is described as above. Conditions: for pest or weed control at 63 g/ha / pest or weed control at 250 g/ha: Digitaria sanguinalis, pre-emergence, 336 h, read-out: Pre-emerge Herbicidal Activity DIGSA; for Pre-emerge herbicidal activity, phytotoxicity rating DIGSA: rating scale 0-100, 14 days after application. An outline of the steps:
as §1

Assay [8] concerns johnsongrass (Sorghum halepense, SORHA). The assay is described as above. Conditions: for pest or weed control at 63 g/ha / pest or weed control at 250 g/ha: Sorghum halepense, pre-emergence, 336 h, read-out: Pre-emerge Herbicidal Activity SORHA; for Pre-emerge herbicidal activity, phytotoxicity rating SORHA: rating scale 0-100, 14 days after application. In outline: as §1
Assay [9] has as its system common ragweed (Ambrosia artemisizfolia L., AMBEL). Described as above. Conditions: phytotoxicity rating 0-100, 14 days after application. In outline:
as §1

The mark [10] stands for this setting: pre-emerge, rate 63 g ai/ha, phytotoxicity rating 0-100 at 14 days after application.
[11] abbreviates: pre-emerge, rate 250 g ai/ha, phytotoxicity rating 0-100 at 14 days after application.
Setting [12] is: 63 g ai/ha, phytotoxicity rating 0-100, 14 days after application.
Setting [13] is: 250 g ai/ha, phytotoxicity rating 0-100, 14 days after application.

`Nc1c(O)c(Cl)cc(F)c1N1C(=O)C2=C(CCCC2)C1=O` [Compound 8-2, 2-amino-6-chloro-4-fluoro-3-tetrahydrophthalimido)phenol]: the entries for the “Post-emerge Herbicidal Activity AMBEL” value in assay [1] (63 g ai/ha) and in assay [1] (250 g ai/ha) were 30 and 90, respectively. The pest or weed control at 63 g/ha in assay [2] (setting [10]) came to 0%; in assay [3] (setting [10]) it was 0%; in [4] (setting [10]), 20%; in assay [5] (setting [10]) it was 80%; in assay [6] (setting [10]), 0%; in assay [7] (setting [10]), 0%. Further, the pest or weed control at 63 g/ha in assay [8] (setting [10]) was found to be 0%. Besides, the pest or weed control at 250 g/ha in assay [2] (setting [11]) was 0%; in [3] (setting [11]) it was 90%; in [4] (setting [11]), 100%; in assay [5] (setting [11]), 100%; in [6] (setting [11]) it was 40%; in [7] (setting [11]), 70%. Further, the pest or weed control at 250 g/ha in assay [8] (setting [11]) was 20%.

Regarding `COc1c(Cl)cc(F)c(-n2nc(C)n(C(F)F)c2=O)c1NC(=O)c1ccc2ccccc2c1` [Compound 6-15], the pest or weed control at 63 g/ha in assay [2] (setting [10]) was determined as 70%; in assay [3] (setting [10]), 70%; in assay [4] (setting [10]), 95%; in [5] (setting [10]) it was 100%; in assay [6] (setting [10]) it was 50%; in assay [7] (setting [10]), 80%. In addition, in assay [8] (setting [10]), the pest or weed control at 63 g/ha turned out to be 50%. For the same molecule, the pest or weed control at 250 g/ha in assay [2] (setting [11]) was 40%; in assay [3] (setting [11]), 80%; in [4] (setting [11]), 100%; in assay [5] (setting [11]), 100%; in assay [6] (setting [11]) it was 80%; in assay [7] (setting [11]) it was 100%. Besides, in assay [8] (setting [11]), the pest or weed control at 250 g/ha was 100%.

For `COc1c(Cl)cc(F)c(N2C(=O)c3ccccc3C2=O)c1NC(=O)c1ccc2ccccc2c1` [Compound 13-3, N-[4-chloro-6-fluoro-3-methoxy-2-(2-naphthoyl)aminophenyl]phthalimide], the “Pre-emerge herbicidal activity, phytotoxicity rating IPOHE” value in assay [2] (63 g ai/ha) and in assay [2] (250 g ai/ha) was 0 in each case. For the same molecule, the “Pre-emerge herbicidal activity, phytotoxicity rating CASOB” value in assay [3] (63 g ai/ha) is 0; in assay [3] (250 g ai/ha) it was 30. For the same molecule, the “Pre-emerge herbicidal activity, phytotoxicity rating SETVI” value turned out to be 10 in assay [4] (63 g ai/ha) and 40 in assay [4] (250 g ai/ha). Also, the “Pre-emerge herbicidal activity, phytotoxicity rating CHEAL” value came out at 90 in [5] (63 g ai/ha) and 100 in assay [5] (250 g ai/ha). Further, the “Pre-emerge herbicidal activity, phytotoxicity rating ECHCG” value was found to be 0 in assay [6] (63 g ai/ha) and 10 in assay [6] (250 g ai/ha). Further, the results for the “Pre-emerge herbicidal activity, phytotoxicity rating DIGSA” value in assay [7] (63 g ai/ha) and in [7] (250 g ai/ha) were 0 and 30, respectively. For the same molecule, the “Pre-emerge herbicidal activity, phytotoxicity rating SORHA” value in assay [8] (63 g ai/ha) came out at 0; in assay [8] (250 g ai/ha) it was 10.

Consider `COc1c(Cl)cc(F)c(-n2c(=O)cc(C(F)(F)F)n(C)c2=O)c1NC(N)=O` [Compound 3-26, 3-(2-aminocarbonylamino-4-chloro-6-fluoro-3-methoxyphenyl)-1-methyl-6-trifluoromethyl-2,4(1H, 3H)-pyrimidinedione], for which the pest or weed control at 63 g/ha in [2] (setting [12]) turned out to be 50%; in assay [3] (setting [12]) it was 40%; in assay [4] (setting [12]), 0%; in [5] (setting [12]), 80%; in assay [6] (setting [12]), 0%; in [7] (setting [12]), 0%. Further, the pest or weed control at 63 g/ha in [8] (setting [12]) stood at 0%. Besides, the pest or weed control at 250 g/ha came to 100% in assay [2] (setting [13]); 90% in assay [3] (setting [13]); 85% in assay [4] (setting [13]); 90% in assay [5] (setting [13]); 30% in assay [6] (setting [13]); 80% in [7] (setting [13]). Moreover, the pest or weed control at 250 g/ha in [8] (setting [13]) amounted to 50%. Also, the “Pre-emerge Herbicidal Activity AMBEL” value in [9] (63 g ai/ha) was determined as 10; in [9] (250 g ai/ha), 90.

Turning to `Cc1nn(-c2c(Cl)cc(Cl)c(N)c2N)c(=O)n1C(F)F` [Compound 6-20], the pest or weed control at 63 g/ha in assay [2] (setting [10]) is 0%; in assay [3] (setting [10]), 0%; in [4] (setting [10]) it was 0%; in assay [5] (setting [10]) it was 50%; in [6] (setting [10]), 0%; in assay [7] (setting [10]), 0%. The pest or weed control at 63 g/ha in assay [8] (setting [10]) came out at 0%. Besides, the pest or weed control at 250 g/ha in assay [2] (setting [11]) is 0%; in assay [3] (setting [11]), 0%; in [4] (setting [11]), 0%; in assay [5] (setting [11]) it was 30%; in [6] (setting [11]), 0%; in [7] (setting [11]), 0%. In addition, the pest or weed control at 250 g/ha in assay [8] (setting [11]) was determined as 0%.
